Here are results for three compounds from patent publication US8609678B2, “Reverse amide compounds as protein deacetylase inhibitors and methods of use thereof” (Acetylon Pharmaceuticals, priority 2010, dated 2013).

Like-named read-outs stand apart in the source and are kept apart here. Some results are limits rather than exact numbers.

One test has as its target HDAC3 (Homo sapiens (Human), UniProt O15379). Put plainly: HDAC enzyme assay, HDAC3. Format: biochemical.
Another test has as its target HDAC6 (Homo sapiens (Human), UniProt Q9UBN7). In words: HDAC enzyme assay, HDAC6.
The subject of the next test is refractory relapsed MM. The conditions noted are these: 202 patients with refractory relapsed MM; cited from earlier work.

HDAC3, sequence (O15379 whole entry): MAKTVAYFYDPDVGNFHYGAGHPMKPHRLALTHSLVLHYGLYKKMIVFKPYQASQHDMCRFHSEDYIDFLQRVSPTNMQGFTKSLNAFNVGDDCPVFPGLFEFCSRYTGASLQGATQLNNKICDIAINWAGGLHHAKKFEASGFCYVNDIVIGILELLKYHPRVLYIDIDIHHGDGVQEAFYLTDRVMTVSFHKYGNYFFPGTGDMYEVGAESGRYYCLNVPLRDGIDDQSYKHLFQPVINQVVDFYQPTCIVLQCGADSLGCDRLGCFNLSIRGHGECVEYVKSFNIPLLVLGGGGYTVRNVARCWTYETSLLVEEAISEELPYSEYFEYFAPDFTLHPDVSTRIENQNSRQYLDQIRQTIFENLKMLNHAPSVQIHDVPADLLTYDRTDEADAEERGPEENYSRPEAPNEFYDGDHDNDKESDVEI
HDAC3, sequence (Q9Y618 395-489 partner): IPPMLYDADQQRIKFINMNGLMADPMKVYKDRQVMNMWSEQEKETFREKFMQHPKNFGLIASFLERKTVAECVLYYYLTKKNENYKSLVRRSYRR
HDAC6, sequence (Q9UBN7 whole entry): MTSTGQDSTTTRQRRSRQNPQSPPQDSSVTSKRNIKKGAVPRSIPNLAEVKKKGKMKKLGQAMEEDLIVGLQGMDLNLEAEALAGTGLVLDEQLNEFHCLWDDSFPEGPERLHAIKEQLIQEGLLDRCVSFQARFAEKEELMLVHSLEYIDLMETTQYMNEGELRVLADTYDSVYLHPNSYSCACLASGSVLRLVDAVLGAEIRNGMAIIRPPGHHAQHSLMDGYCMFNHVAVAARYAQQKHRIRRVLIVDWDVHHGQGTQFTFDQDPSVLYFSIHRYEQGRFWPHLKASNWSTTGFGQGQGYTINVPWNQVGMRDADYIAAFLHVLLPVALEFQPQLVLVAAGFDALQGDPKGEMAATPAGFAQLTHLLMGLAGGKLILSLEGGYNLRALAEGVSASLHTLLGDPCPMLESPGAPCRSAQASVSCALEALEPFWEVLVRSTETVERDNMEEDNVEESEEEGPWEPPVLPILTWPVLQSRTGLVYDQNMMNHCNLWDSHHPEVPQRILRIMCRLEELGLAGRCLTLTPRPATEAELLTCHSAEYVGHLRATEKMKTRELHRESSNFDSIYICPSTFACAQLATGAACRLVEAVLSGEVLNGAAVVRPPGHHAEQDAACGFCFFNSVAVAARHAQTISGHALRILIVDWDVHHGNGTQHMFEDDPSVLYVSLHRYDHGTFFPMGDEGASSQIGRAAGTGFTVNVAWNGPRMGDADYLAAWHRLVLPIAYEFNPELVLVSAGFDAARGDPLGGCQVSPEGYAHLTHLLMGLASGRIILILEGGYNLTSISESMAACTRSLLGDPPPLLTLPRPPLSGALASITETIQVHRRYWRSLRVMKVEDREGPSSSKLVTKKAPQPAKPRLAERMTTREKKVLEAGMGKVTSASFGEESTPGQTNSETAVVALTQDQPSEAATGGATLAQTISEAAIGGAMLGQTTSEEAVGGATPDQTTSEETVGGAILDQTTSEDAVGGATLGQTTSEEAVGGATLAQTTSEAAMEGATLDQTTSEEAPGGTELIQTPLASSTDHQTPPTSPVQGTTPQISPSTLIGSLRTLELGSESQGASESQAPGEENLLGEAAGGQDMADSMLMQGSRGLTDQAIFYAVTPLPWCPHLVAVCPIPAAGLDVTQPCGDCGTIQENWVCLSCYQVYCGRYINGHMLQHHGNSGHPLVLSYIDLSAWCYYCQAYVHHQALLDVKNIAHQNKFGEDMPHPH
Experimental for HDAC3: (§1) Compounds for testing were diluted in DMSO to 50 fold the final concentration and a ten point three fold dilution series was made. The compounds were diluted in assay buffer (50 mM HEPES, pH 7.4, 100 mM KCl, 0.001% Tween-20, 0.05% BSA, 20 μM TCEP) to 6 fold their final concentration. […] The tripeptide substrate and trypsin at 0.05 μM final concentration were diluted in assay buffer at 6 fold their final concentration. The final enzyme concentrations used in these assays were 3.3 ng/ml (HDAC1), 0.2 ng/ml (HDAC2), 0.08 ng/ml (HDAC3) and 2 ng/ml (HDAC6). […] Five μl compounds and 20 μl of enzyme were added to wells of a black, opaque 384 well plate in duplicate. Enzyme and compound were incubated together at room temperature for 10 minutes. […] The development of fluorescence was monitored for 60 min and the linear rate of the reaction was calculated. The IC50 was determined using Graph Pad Prism by a four parameter curve fit.
Experimental for HDAC6: as §1

One may read the IC50 as the midpoint of a concentration-inhibition curve. As for `COC(c1ccccc1)(c1ccccc1)c1ccc(C(=O)NCCCCCCC(=O)NO)cc1` [N-(7-(hydroxyamino)-7-oxoheptyl)-4-(methoxydiphenylmethyl)benzamide], the IC50 on HDAC3 (0.08 ng/ml enzyme, 17 μM tripeptide substrate, read-out: IC50(nM) HDAC3) was found to be 243 nM; on HDAC6, 0.007 µM.

For the compound `NC(=O)CCCCCCNC(=O)c1cnc(N(c2ccccc2)c2ccccc2)nc1` [N-(7-amino-7-oxoheptyl)-2-(diphenylamino)pyrimidine-5-carboxamide], the IC50 is above 50000 nM at HDAC3 (μM, read-out: IC50 HDAC3) and above 50 µM at HDAC6 (read-out: IC50 HDAC6, μM).

Consider `CC(C)C[C@H](NC(=O)[C@H](Cc1ccccc1)NC(=O)c1cnccn1)B(O)O` [bortezomib], for which, in the test on refractory relapsed MM, the “complete and near complete responses” value is on record as 10%; the “patients did not respond” value is given as 65%; the responses was 35%.
